Like-named read-outs stand apart in the source and are kept apart here. Some results are limits rather than exact numbers.

Data set [1] in a line: Stability in simulated gastric fluid. Type of data set: in vitro ADME. The conditions noted are these: 2 μM, 37° C., pH 1.5, pepsin; for half-life: simulated gi fluid, read-out: half-life (t1/2) in simulated gastric fluid. As to the method:
(§1) Reactions were terminated by the addition of TFA/H2O (15 mL, 10% (v/v)). […] The column was equilibrated with TFA/H2O, at a flow rate of 1 mL/min. […] The absorbance was monitored at 206 nm using UV detector and peaks were collected manually prior to ESI-MS analysis.

The nature of data set [2]: Stability in human plasma. Type of data set: in vitro ADME. The conditions noted are these: 2 μM, 37° C.; for half-life: human, plasma, read-out: half-life (t1/2) in human plasma. As to the method: as §1
Data set [3] can be described thus: Stability against liver microsomes. It counts as in vitro ADME, human. The conditions noted are these: 2 μM, 37° C.; for half-life: human, microsomes, read-out: half-life (t1/2) with liver microsomes. As to the method: as §1
The target of the next data set is DPP IV (Homo sapiens, UniProt P27487). Description: Stability against DPP IV enzyme. It counts as in vitro ADME. The conditions noted are these: 2 μM, 37° C.; for half-life: read-out: half-life (t1/2) with DPP-IV enzyme. As to the method:
as §1

The next data set addresses T1, Human GLP-1 receptor (Homo sapiens, UniProt P43220).
T1 construct: The full-length cDNA was cloned in pcDNA3.1(+); expressed in transfected cells
Type of data set: cell-based. In a few lines:
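Stably transfected CHO cells expressing human GLP-1R, passages 9-25, exposed to compounds for 30 min at 37 °C. Lysed in ice-cold 0.1 N HCl; total cAMP by immunoassay, protein by micro BCA; expressed as percent of water vehicle control, mean±SD.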

Data set [4] in a line: Stability in simulated intestinal fluid. The conditions noted are these: 2 μM, 37° C., pH 7.5; for half-life: simulated gi fluid, read-out: half-life (t1/2) in simulated intestinal fluid. It counts as in vitro ADME. As to the method:
as §1

T1 sequence (P43220 24-463): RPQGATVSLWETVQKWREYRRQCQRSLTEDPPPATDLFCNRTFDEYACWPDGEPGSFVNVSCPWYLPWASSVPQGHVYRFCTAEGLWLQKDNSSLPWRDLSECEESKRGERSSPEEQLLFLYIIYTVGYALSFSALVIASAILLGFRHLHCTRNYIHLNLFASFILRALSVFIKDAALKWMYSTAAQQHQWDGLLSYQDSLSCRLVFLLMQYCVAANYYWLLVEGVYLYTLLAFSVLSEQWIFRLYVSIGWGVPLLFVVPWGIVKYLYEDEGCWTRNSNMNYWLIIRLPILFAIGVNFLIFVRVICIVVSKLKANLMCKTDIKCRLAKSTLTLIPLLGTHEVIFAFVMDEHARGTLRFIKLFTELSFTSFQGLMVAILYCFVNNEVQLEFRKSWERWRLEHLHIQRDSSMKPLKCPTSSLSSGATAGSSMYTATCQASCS
DPP IV, sequence (P27487 whole entry, species assumed): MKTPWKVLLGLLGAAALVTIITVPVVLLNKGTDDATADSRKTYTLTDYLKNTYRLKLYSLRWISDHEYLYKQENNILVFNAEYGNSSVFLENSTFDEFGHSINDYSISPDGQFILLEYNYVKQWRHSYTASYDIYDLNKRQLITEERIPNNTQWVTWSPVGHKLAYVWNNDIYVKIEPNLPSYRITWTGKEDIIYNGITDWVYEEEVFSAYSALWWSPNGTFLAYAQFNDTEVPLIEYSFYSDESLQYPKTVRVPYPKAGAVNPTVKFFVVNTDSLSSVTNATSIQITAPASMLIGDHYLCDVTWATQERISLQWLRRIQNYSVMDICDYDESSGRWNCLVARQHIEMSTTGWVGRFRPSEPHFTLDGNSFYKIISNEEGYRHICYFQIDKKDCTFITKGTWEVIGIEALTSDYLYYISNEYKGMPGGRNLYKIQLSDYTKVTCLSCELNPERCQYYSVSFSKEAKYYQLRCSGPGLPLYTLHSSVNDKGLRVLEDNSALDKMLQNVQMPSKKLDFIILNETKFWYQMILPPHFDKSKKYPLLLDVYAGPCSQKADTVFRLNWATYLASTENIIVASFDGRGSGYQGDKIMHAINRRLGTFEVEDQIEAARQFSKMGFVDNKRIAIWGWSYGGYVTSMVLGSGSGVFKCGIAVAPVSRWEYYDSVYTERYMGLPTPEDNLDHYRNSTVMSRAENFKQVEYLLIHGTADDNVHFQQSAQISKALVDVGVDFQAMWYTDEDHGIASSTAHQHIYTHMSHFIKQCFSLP

Turning to `CCc1cc(OC)ccc1-c1ccc(CC(NC(=O)[C@H](CC(=O)O)NC(=O)[C@H](CO)NC(=O)[C@@H](NC(=O)[C@H](Cc2ccccc2)NC(=O)[C@@H](NC(=O)CNC(=O)[C@H](CCC(N)=O)NC(=O)C2(NC(=O)[C@@H](N)Cc3c[nH]cn3)CC2)[C@@H](C)O)[C@@H](C)O)C(=O)NC(Cc2ccc(-c3ccccc3F)cc2)C(N)=O)cc1` (single isomer, unassigned) [compound 19], the “% degradation in 24 h when incubated with simulated gastric fluid” value (from here on “% degradation … with simulated gastric fluid”) in data set [1] was 43%. In addition, the half-life in data set [1] is 4 h; in data set [2] it was greater than 24 h; in data set [3], 2 h; on DPP IV, greater than 24 h; in data set [4], greater than 24 h. Moreover, the “% degradation in 24 h when incubated with human plasma” value (“% degradation … with human plasma” for short) in data set [2] came to 00%. In addition, in data set [3], the “% degradation in 24 h when incubated with liver microsomes” value (from here on “% degradation … with liver microsomes”) amounted to 84%. In addition, the “% degradation in 24 h when incubated with DPP-IV enzyme” value (from here on “% degradation … with DPP-IV enzyme”) at DPP IV is 00%. Further, the “Human GLP-1 R activity (cAMP release), % activity with respect to control” value at Human GLP-1 receptor (1 nM test compound) stood at 96 ± 0.02%; at Human GLP-1 receptor (10 nM test compound), 99 ± 0.46%; at Human GLP-1 receptor (100 nM test compound), 99 ± 0.41%; at Human GLP-1 receptor (1 μM test compound) it was 99 ± 0.66%; at Human GLP-1 receptor (10 μM test compound), 99 ± 0.03%. The “% degradation in 24 h when incubated with simulated intestinal fluid” value (shortened to “% degradation … with simulated intestinal fluid”) in data set [4] is 00%.
`CCc1cc(OC)ccc1-c1ccc(CC(NC(=O)[C@H](CC(=O)O)NC(=O)[C@H](CO)NC(=O)[C@@H](NC(=O)[C@H](Cc2ccccc2)NC(=O)[C@@H](NC(=O)CNC(=O)[C@H](CCC(N)=O)NC(=O)C2(NC(=O)[C@@H](N)Cc3c[nH]cn3)CC2)[C@@H](C)O)[C@@H](C)O)C(=O)NC(Cc2ccc(-c3ccccc3C(F)(F)F)cc2)C(N)=O)cc1` (single isomer, unassigned) [compound 20]: the “% degradation … with simulated gastric fluid” value in data set [1] was 41%. The half-life in data set [1] is 4 h; in data set [2], greater than 24 h; in data set [3], 2 h; at DPP IV it was greater than 24 h; in data set [4], greater than 24 h. The “% degradation … with human plasma” value in data set [2] was 00%. Also, the “% degradation … with liver microsomes” value in data set [3] is 80%. On DPP IV, the “% degradation … with DPP-IV enzyme” value was found to be 00%. The “Human GLP-1 R activity (cAMP release), % activity with respect to control” value was 96 ± 0.09% at Human GLP-1 receptor (1 nM test compound); 99 ± 0.07% at Human GLP-1 receptor (10 nM test compound); 99 ± 0.04% on Human GLP-1 receptor (100 nM test compound); 99 ± 0.01% at Human GLP-1 receptor (1 μM test compound); 99 ± 0.08% on Human GLP-1 receptor (10 μM test compound). For the same molecule, the “% degradation … with simulated intestinal fluid” value in data set [4] was 00%.
As for `CCc1cc(OC)ccc1-c1ccc(CC(NC(=O)[C@H](CC(=O)O)NC(=O)[C@H](CO)NC(=O)[C@@H](NC(=O)C(C)(Cc2ccccc2F)NC(=O)[C@@H](NC(=O)CNC(=O)[C@H](CCC(N)=O)NC(=O)C(C)(C)NC(=O)[C@@H](N)Cc2c[nH]cn2)[C@@H](C)O)[C@@H](C)O)C(=O)NC(Cc2ccc(-c3ccccc3C)cc2)C(N)=O)cc1` (single isomer, unassigned) [compound 29], the “% degradation … with simulated gastric fluid” value in data set [1] is on record as 00%. The half-life (in data set [1]; in data set [2]; on DPP IV; in data set [4]) was greater than 24 h throughout. Besides, the “% degradation … with human plasma” value in data set [2] amounted to 00%. Besides, the “half-life (t1/2) with liver microsomes” value in data set [3] is reported as “(5) h”. Besides, the “% degradation … with liver microsomes” value in data set [3] turned out to be 35%. Further, the “% degradation … with DPP-IV enzyme” value on DPP IV turned out to be 00%. Also, the “Human GLP-1 R activity (cAMP release), % activity with respect to control” value at Human GLP-1 receptor (1 nM test compound) is 99 ± 0.12%; on Human GLP-1 receptor (10 nM test compound), 99 ± 0.15%; at Human GLP-1 receptor (100 nM test compound) it was 99 ± 0.18%; on Human GLP-1 receptor (1 μM test compound), 99 ± 0.03%; on Human GLP-1 receptor (10 μM test compound) it was 99 ± 0.09%. The “% degradation … with simulated intestinal fluid” value in data set [4] is listed as 00%.
Regarding `CCc1cc(OC)ccc1-c1ccc(CC(NC(=O)[C@H](CC(=O)O)NC(=O)[C@H](CO)NC(=O)[C@@H](NC(=O)C(C)(Cc2ccccc2F)NC(=O)[C@@H](NC(=O)CNC(=O)[C@H](CCC(N)=O)NC(=O)C(C)(C)NC(=O)[C@@H](N)Cc2c[nH]cn2)[C@@H](C)O)[C@@H](C)O)C(=O)NC(Cc2ccc(-c3ccccc3C)nc2)C(N)=O)cc1` (single isomer, unassigned) [compound 30], in data set [1], the “% degradation … with simulated gastric fluid” value is reported as 00%. For the same molecule, the half-life (in data set [1]; in data set [2]; on DPP IV; in data set [4]) was greater than 24 h throughout. In data set [2], the “% degradation … with human plasma” value was determined as 00%. Further, in data set [3], the “half-life (t1/2) with liver microsomes” value is given as “(5) h”. Besides, the “% degradation … with liver microsomes” value in data set [3] came out at 33%. On DPP IV, the “% degradation … with DPP-IV enzyme” value turned out to be 00%. Further, the “Human GLP-1 R activity (cAMP release), % activity with respect to control” value turned out to be 93 ± 0.11% on Human GLP-1 receptor (1 nM test compound); 99 ± 0.09% at Human GLP-1 receptor (10 nM test compound); 99 ± 0.06% on Human GLP-1 receptor (100 nM test compound); 99 ± 0.14% at Human GLP-1 receptor (1 μM test compound); 99 ± 0.19% on Human GLP-1 receptor (10 μM test compound). In data set [4], the “% degradation … with simulated intestinal fluid” value is given as 00%.
In the case of `CCc1cc(OC)ccc1-c1ccc(CC(NC(=O)[C@H](CC(=O)O)NC(=O)[C@H](CO)NC(=O)[C@@H](NC(=O)C(C)(Cc2ccccc2F)NC(=O)[C@@H](NC(=O)CNC(=O)[C@H](CCC(N)=O)NC(=O)C(C)(C)NC(=O)[C@@H](N)Cc2c[nH]cn2)[C@@H](C)O)[C@@H](C)O)C(=O)NC(Cc2ccc(-c3ccccc3F)cc2)C(N)=O)cc1` (single isomer, unassigned) [compound 31], the “% degradation … with simulated gastric fluid” value in data set [1] is 00%. In addition, the half-life (in data set [1]; in data set [2]; on DPP IV; in data set [4]) was greater than 24 h throughout. The “% degradation … with human plasma” value in data set [2] came to 00%. Moreover, the “half-life (t1/2) with liver microsomes” value in data set [3] was “(5) h”. In addition, the “% degradation … with liver microsomes” value in data set [3] is recorded as 31%. Further, the “% degradation … with DPP-IV enzyme” value at DPP IV is 00%. Moreover, the “Human GLP-1 R activity (cAMP release), % activity with respect to control” value came to 93 ± 0.10% at Human GLP-1 receptor (1 nM test compound); 99 ± 0.46% on Human GLP-1 receptor (10 nM test compound); 99 ± 0.41% at Human GLP-1 receptor (100 nM test compound); 99 ± 0.66% at Human GLP-1 receptor (1 μM test compound); 99 ± 0.03% on Human GLP-1 receptor (10 μM test compound). The “% degradation … with simulated intestinal fluid” value in data set [4] is listed as 00%.
`CCc1cc(OC)ccc1-c1ccc(CC(NC(=O)[C@H](CC(=O)O)NC(=O)[C@H](CO)NC(=O)[C@@H](NC(=O)C(C)(Cc2ccccc2F)NC(=O)[C@@H](NC(=O)CNC(=O)[C@H](CCC(N)=O)NC(=O)C(C)(C)NC(=O)[C@@H](N)Cc2c[nH]cn2)[C@@H](C)O)[C@@H](C)O)C(=O)NC(Cc2ccc(-c3ccccc3C(F)(F)F)cc2)C(N)=O)cc1` (single isomer, unassigned) [compound 32]: in data set [1], the “% degradation … with simulated gastric fluid” value is 00%. Moreover, the half-life (in data set [1]; in data set [2]; on DPP IV; in data set [4]) was greater than 24 h each time. For the same molecule, the “% degradation … with human plasma” value in data set [2] is 00%. Besides, the “half-life (t1/2) with liver microsomes” value in data set [3] is “(5) h”. Besides, the “% degradation … with liver microsomes” value in data set [3] is given as 32%. For the same molecule, at DPP IV, the “% degradation … with DPP-IV enzyme” value came out at 00%. The “Human GLP-1 R activity (cAMP release), % activity with respect to control” value was 99 ± 0.06% at Human GLP-1 receptor (1 nM test compound); 99 ± 0.06% on Human GLP-1 receptor (10 nM test compound); 99 ± 0.08% on Human GLP-1 receptor (100 nM test compound); 99 ± 0.10% at Human GLP-1 receptor (1 μM test compound); 99 ± 0.12% at Human GLP-1 receptor (10 μM test compound). Moreover, the “% degradation … with simulated intestinal fluid” value in data set [4] is 00%.

The values above are taken from patent US8841413B2, “Antidiabetic compounds” (Cadila Healthcare Limited, priority 2006, dated 2014).
